The values that follow come from US4233303A, “Xanthine derivatives” (priority 1977, dated 1980).

Molecules are shown by their SMILES. “Also recorded” adds a separate entry of the source. Where two headings read alike, the source gives them in different places. Bounds are passed on as bounds.

Assay [1] deals with actively sensitized rat (anaphylactic bronchospasm). Nature of the assay: Active lung anaphylaxis in the rat (increase in intratracheal pressure after ovalbumin). It counts as in vivo, Sprague Dawley (printed "Spargue Dawley"). The note with it: for Increase in intratracheal pressure (+ΔP): 1 min before ovalbumin, mean ± S.E.M.; for ED50: Rattus norvegicus, iv; for doses needed for protective effect / protective effect against anaphylactic bronchospasm (words, conclusion): actively sensitized rat; for protective effect against anaphylactic bronchospasm (words, conclusion): theophylline 0.010-2.5 mg/kg, disodiumcromoglicate 0.1-5.0 mg/kg; for effect on the increase of the intratracheal pressure / concentrations showing inhibition of the anaphylactic bronchospasm / maximum inhibition of the anaphylactic bronchospasm: 1 minute before ovalbumin.
Protocol: The antianaphylactic effect was tested on actively sensitized laboratory animals.
The active sensitization of the animals was achieved by injecting ovalbumin, a protein. This administration makes the animals hypersensitive to subsequent challenge of ovalbumin with bronchoconstriction as a consequence. The antianaphylactic effect of the test compounds was tested in vivo by exposing the actively sensitized animals to ovalbumin and measuring the protective effect of test substance on the intratracheal pressure.
Rats, Spargue Dawley, 250 g, were sensibilized by 1.0 mg ovalbumin (Sigma) and 200 mg Al(OH)3 gel suspended in 1.0 ml saline. This suspension was administered subcutaneously at 2 sites (0.5 ml/site) on the abdominal side. This procedure was done with the animals lightly anesthetized by Mebumal. 18-26 days later the animals were used in the provocation experiments
The animal was anesthetized by i.p. injection of Mebumal, 50 mg/kg i.p. The trachea was cannulated and the animals was ventilated by a pump (Braun). The frequency of respiration was about 80 beats/min. The intratracheal pressure was measured by a Statham pressure transducer (P23AC). The normal pressure variations were 0- cm H2 O.
To inhibit spontaneous respiration there was need for Curare 0.8 mg/kg i.v. Alongside with the respiratory measurements the heart rate and arterial blood pressure was measured by a Statham pressure transducer connected with a. carotis. The blood pressure, pulse rate and intratracheal pressure were registered by means of a Grass polygraph.
Bronochoconstriction was induced by 5HT, 4-5 injections in v. jugularis of a standard dose. After that a single dose of ovalbumin, 5 mg, was administered. Test compound was administered 1 min before the challenging dose of ovalbumin. Because of desensitization towards the antigen (ovalbumin) this could only be administered once in each animal.
Calculation of anaphylactic bronchoconstriction
The maximum increase of the intratracheal pressure caused by ovalbumin was measured and this was expressed as the percentage increase of the intratracheal pressure. Comparisons were made between a group of control animals not treated with test compound and groups of animals treated with different doses of test compound.
They were initially dissolved in 0.8 ml NaOH (0.5 M) and 9.2 ml saline. This stock solution of compound, 10 mg/ml, was diluted further with saline if necessary. […] The compound was dissolved in saline.

The test system of assay [2] is basophil leucocytes and isolated lung tissue. The conditions noted are these: cited from earlier work.
Setting [3] is: read-out: Extrapolated intravenous dose for 50% protection (ED 50), i.v., Table VIII.
Where [4] appears, read: read-out: ED 50 values (50% protection against the anaphylactic bronchospasm), i.v., extrapolated.

Regarding `O=C(O)c1cc(=O)c2c(OCC(O)COc3cccc4oc(C(=O)O)cc(=O)c34)cccc2o1` [disodiumcromoglicate, reference compound], the figures for the “Increase in intratracheal pressure (+ΔP)” value in assay [1] (0.100 mg/kg i.v.), in assay [1] (1.00 mg/kg i.v.) and in assay [1] (5.0 mg/kg i.v.) were 46 ± 7%, 22 ± 8% and 46 ± 6%, respectively. Also, the “ED 50 result in words (dose-response shape)” value in assay [1] (i.v.) was “bell shaped curves which made it impossible to calculate ED 50 values; also recorded: bell-shaped curve”.

In the case of `Cc1nc2c([nH]1)c(=O)n(C)c(=O)n2C1CCCC1` [D 4136, 3-cyclopentyl-3,7-dihydro-1,8-dimethyl-1H-purine-2,6-dione], the “Increase in intratracheal pressure (+ΔP)” value in assay [1] (0.025 mg/kg i.v.) amounted to 36 ± 4%; in assay [1] (0.100 mg/kg i.v.), 55%; in assay [1] (1.00 mg/kg i.v.), 27 ± 4%. In addition, the ED50 in assay [1] (setting [3]) is 0.13 mg/kg. Besides, in assay [1] (i.v.), the “doses needed for protective effect” value was in the range of 0.01 to 1.0 mg/kg. The “protective effect against anaphylactic bronchospasm (words, conclusion)” value (“protective effect … (words, conclusion)” for short) in assay [1] was “show protective effect”. Besides, the “effect on the increase of the intratracheal pressure” value (from here on “effect on the increase”) in assay [1] (i.v.) is “diminished the increase of the intratracheal pressure”.

Take `CCn1c(=O)c2[nH]c(C)nc2n(CC2CCCCC2)c1=O` [D 4139, 3,7-dihydro-1-ethyl-8-methyl-3-cyclohexylmethyl-1H-purine-2,6-dione]: in assay [1] (0.010 mg/kg i.v.), the “Increase in intratracheal pressure (+ΔP)” value is on record as 74 ± 22%. The “Increase in intratracheal pressure (+ΔP)” value in assay [1] (0.05 mg/kg i.v.) is 50 ± 26%. Moreover, the “Increase in intratracheal pressure (+ΔP)” value in assay [1] (0.100 mg/kg i.v.) worked out at 35 ± 9%. In assay [1] (setting [4]), the ED50 is less than 0.1 mg/kg. Besides, in assay [1] (setting [3]), the ED50 is 0.04 mg/kg. Besides, in assay [1] (i.v.), the “doses needed for protective effect” value was in the range of 0.01 to 1.0 mg/kg, the “concentrations showing inhibition of the anaphylactic bronchospasm” value (“concentrations showing inhibition” for short) lay in the range of 0.01 to 0.10 mg/kg, the “effect on the increase” value was “diminished the increase of the intratracheal pressure” and the “maximum inhibition of the anaphylactic bronchospasm” value (“maximum inhibition” below) is 68%. Besides, the “protective effect … (words, conclusion)” value in assay [1] is on record as “show protective effect”. For the same molecule, the “ED 50 values (50% protection against the anaphylactic bronchospasm)” value in assay [1] (i.v., extrapolated) is 0.10 to 0.27 mg/kg.

`Cc1nc2c([nH]1)c(=O)n(C)c(=O)n2CC(C)O` (stereo not drawn) [D 4086, 3,7-dihydro-1,8-dimethyl-3-(2-hydroxypropyl)-1H-purine-2,6-dione]: the “Increase in intratracheal pressure (+ΔP)” value in assay [1] (0.100 mg/kg i.v.) is 26 ± 6%; in assay [1] (0.250 mg/kg i.v.), 14 ± 3%; in assay [1] (0.500 mg/kg i.v.) it was 2 ± 1%. The results for the ED50 in assay [1] (setting [4]) and in assay [1] (setting [3]) were 0.1 to 0.27 mg/kg and 0.12 mg/kg, respectively. The “doses needed for protective effect” value in assay [1] (i.v.) fell in the range of 0.01 to 1.0 mg/kg. In addition, the “protective effect … (words, conclusion)” value in assay [1] is “show protective effect”. In addition, the “effect on the increase” value in assay [1] (i.v.) is reported as “diminished the increase of the intratracheal pressure”.

With `Cc1nc2c([nH]1)c(=O)n(C)c(=O)n2-c1ccccc1` [D 4026, 3,7-dihydro-1,8-dimethyl-3-phenyl-1H-purine-2,6-dione], in assay [1] (0.010 mg/kg i.v.), the “Increase in intratracheal pressure (+ΔP)” value is on record as 33 ± 6%. For the same molecule, the “Increase in intratracheal pressure (+ΔP)” value in assay [1] (0.100 mg/kg i.v.) was found to be 7 ± 2%. The “Increase in intratracheal pressure (+ΔP)” value in assay [1] (0.500 mg/kg i.v.) was 9 ± 5%. Also, in assay [1] (setting [4]), the ED50 is less than 0.1 mg/kg. Moreover, the ED50 in assay [1] (setting [3]) is 0.016 mg/kg. For the same molecule, in assay [1] (i.v.), the “doses needed for protective effect” value fell in the range of 0.01 to 1.0 mg/kg, the “concentrations showing inhibition” value was 0.01 to 0.10 mg/kg, the “effect on the increase” value is reported as “diminished the increase of the intratracheal pressure” and the “maximum inhibition” value is given as “about 87%”. For the same molecule, the “protective effect … (words, conclusion)” value in assay [1] is on record as “show protective effect”.

In the case of `CCCn1c(=O)c2[nH]c(C)nc2n(CC(C)O)c1=O` (stereo not drawn) [D 4122, 3,7-dihydro-3-(2-hydroxypropyl)-8-methyl-1-propyl-1H-purine-2,6-dione], the “Increase in intratracheal pressure (+ΔP)” value in assay [1] (0.010 mg/kg i.v.) is 34 ± 4%; in assay [1] (0.100 mg/kg i.v.), 23 ± 5%; in assay [1] (1.00 mg/kg i.v.) it was 18 ± 4%. Moreover, the ED50 is less than 0.1 mg/kg in assay [1] (setting [4]) and 0.01 mg/kg in assay [1] (setting [3]). The “doses needed for protective effect” value in assay [1] (i.v.) fell in the range of 0.01 to 1.0 mg/kg. Also, the “protective effect … (words, conclusion)” value in assay [1] was “show protective effect”. In addition, the “concentrations showing inhibition” value in assay [1] (i.v.) lay within 0.01 to 1.00 mg/kg. Further, the “effect on the increase” value in assay [1] (i.v.) is “diminished the increase of the intratracheal pressure”. In addition, the “maximum inhibition” value in assay [1] (i.v.) stood at 79%.

Consider `Cn1c(=O)c2[nH]cnc2n(C)c1=O` [theophylline], for which the “inhibition of the anaphylactic release of histamine” value in assay [2] is given as “capable of inhibiting the anaphylactic release of histamine”.
